Source: the Deep4Chem optical property database

Experiment: photoluminescence quantum yield (fraction); solvent given as SMILES
[1] = in c1cc(-c2cccc(-n3c4ccccc4c4ccccc43)c2)cc(-n2c3ccccc3c3ccccc32)c1
[2] = in O=P(c1ccccc1)(c1ccccc1)c1ccccc1Oc1ccccc1P(=O)(c1ccccc1)c1ccccc1
[3] = in O=P(c1ccccc1)(c1ccccc1)c1ccc2oc3ccc(P(=O)(c4ccccc4)c4ccccc4)cc3c2c1

Structure (SMILES): CC(C)(C)c1ccc2c(c1)c1cc(C(C)(C)C)ccc1n2-c1cc(C(=O)c2ccccc2)cc(-n2c3ccc(C(C)(C)C)cc3c3cc(C(C)(C)C)ccc32)c1
- photoluminescence quantum yield (in Cc1ccccc1): 0.073
- photoluminescence quantum yield [1]: 0.75

Structure (SMILES): c1ccc2c(c1)CCc1c-2cnc2c1-c1ccccc1CC2
- photoluminescence quantum yield (in C1CCOC1): 0.665
- photoluminescence quantum yield (in CC#N): 0.69
- photoluminescence quantum yield (in CCCCCC): 0.149
- photoluminescence quantum yield (in CCOC(C)=O): 0.567
- photoluminescence quantum yield (in CO): 0.141
- photoluminescence quantum yield (in CS(C)=O): 0.227
- photoluminescence quantum yield (in Cc1ccccc1): 0.513
- photoluminescence quantum yield (in ClCCl): 0.291

Structure (SMILES): O=C([O-])c1ccc(C2=c3cc4c5c(c3Oc3c2cc2c6c3CCCN6CCC2)CCC[N+]=5CCC4)c(C(=O)[O-])c1
- photoluminescence quantum yield (in CCO): 0.79
- photoluminescence quantum yield (in O): 0.6

Structure (SMILES): F[B-]1(F)n2c(c(-c3cccs3)c3c2-c2ccccc2CC3)C=C2C(c3cccs3)=C3CCc4ccccc4C3=[N+]21
- photoluminescence quantum yield (in CC#N): 0.84

Structure (SMILES): c1cc2ccc3ccc4cc3c2cc1c1ccc2ccc3ccc(cc3c2c1)c1ccc2c(c1)c1cc4ccc1[C@]13OCCO[C@]21OCCO3
- photoluminescence quantum yield (in Cc1ccccc1): 0.78

Structure (SMILES): c1ccc(N2N=C(c3cccc4ccccc34)CC2c2ccc3ccc4cccc5ccc2c3c45)cc1 (configuration not stated)
- photoluminescence quantum yield (in ClCCl): 0.58

Structure (SMILES): COC(=O)c1ccc(C2=C(/C=C/c3ccc(OC)cc3)O[B-](F)(F)[O+]=C2/C=C/c2ccc(OC)cc2)cc1
- photoluminescence quantum yield (in ClCCl): 0.43

Structure (SMILES): COc1ccc(-c2ncccn2)cc1
- photoluminescence quantum yield (in ClCCl): 0.01

Structure (SMILES): F[B-]1(F)n2cccc2C(c2ccccc2)=C2C=CC=[N+]21
- photoluminescence quantum yield (in Cc1ccccc1): 0.053
- photoluminescence quantum yield (in ClCCl): 0.74

Structure (SMILES): c1cc2ccc1-c1ccc(cc1)-c1ccc(s1)-c1ccc(cc1)-c1ccc(cc1)-c1ccc(s1)-c1ccc(cc1)-c1ccc(cc1)-c1ccc-2s1
- photoluminescence quantum yield (in C1CCOC1): 0.27

Structure (SMILES): CC1(C)c2ccccc2-n2c(-c3ccc(N4c5ccccc5Oc5ccccc54)cc3)nc3cccc1c32
- photoluminescence quantum yield (in Cc1ccccc1): 0.31
- photoluminescence quantum yield [2]: 0.71

Structure (SMILES): CCN(CC)c1ccc2c(c1)oc(=O)c1c(=O)oc3c(C)c4oc(=O)c5c(=O)oc6cc(N(CC)CC)ccc6c5c4cc3c12
- photoluminescence quantum yield (in CS(C)=O): 0.002
- photoluminescence quantum yield (in ClCCl): 0.67

Structure (SMILES): CC(C)c1cc(C(C)C)c(B2c3cc(-n4c5ccc(C(C)(C)C)cc5c5cc(C(C)(C)C)ccc54)ccc3N(c3ccccc3)c3ccc(-n4c5ccc(C(C)(C)C)cc5c5cc(C(C)(C)C)ccc54)cc32)c(C(C)C)c1
- photoluminescence quantum yield [1]: 0.98

Structure (SMILES): CCCCc1ccc(-n2c3c4cc(F)ccc4nc(-c4ccc(OC)cc4)c3c3c2c2c(-c4ccc(OC)cc4)nc4ccc(F)cc4c2n3-c2ccc(CCCC)cc2)cc1
- photoluminescence quantum yield (in ClC(Cl)Cl): 0.19

Structure (SMILES): COC(=O)c1ccc(C#Cc2ccc(N(C)C)cc2)cc1
- photoluminescence quantum yield (in C1CCCCC1): 0.351
- photoluminescence quantum yield (in C1CCOC1): 0.15
- photoluminescence quantum yield (in C1COCCO1): 0.303
- photoluminescence quantum yield (in CC1CCCO1): 0.248
- photoluminescence quantum yield (in CC#N): 0.134
- photoluminescence quantum yield (in CC(C)=O): 0.428
- photoluminescence quantum yield (in CC(C)CC(C)(C)C): 0.31
- photoluminescence quantum yield (in CC(C)O): 0.013
- photoluminescence quantum yield (in CCCCCCCCCCCCCCCC): 0.314
- photoluminescence quantum yield (in CCCCCCCCCCCCCCCCCl): 0.339
- photoluminescence quantum yield (in CCOC(C)=O): 0.14
- photoluminescence quantum yield (in CCOCC): 0.216
- photoluminescence quantum yield (in CN(C)C=O): 0.065
- photoluminescence quantum yield (in CO): 0.001
- photoluminescence quantum yield (in CS(C)=O): 0.053
- photoluminescence quantum yield (in Cc1ccccc1): 0.324

Structure (SMILES): Cc1cc(C(F)(F)F)nc2c1ccc1nc(-c3ccc(F)c(F)c3)cn12
- photoluminescence quantum yield (in CC#N): 0.84
- photoluminescence quantum yield (in CCCCOC(C)=O): 0.78
- photoluminescence quantum yield (in CO): 0.83
- photoluminescence quantum yield (in ClC(Cl)Cl): 0.96

Structure (SMILES): CCN(CC)c1ccc(-n2c(C)ccc2C)cc1
- photoluminescence quantum yield (in CC#N): 0.24
- photoluminescence quantum yield (in CCCCCC): 0.17

Structure (SMILES): CCCCCCCCC1(CCCCCCCC)c2ccccc2-c2ccc(N(c3ccc(-n4c5ccccc5c5ccccc54)cc3)c3ccc4c(c3)C(CCCCCCCC)(CCCCCCCC)c3ccccc3-4)cc21
- photoluminescence quantum yield (in C1CCOC1): 0.24
- photoluminescence quantum yield (in CC#N): 0.31
- photoluminescence quantum yield (in CC(C)=O): 0.31
- photoluminescence quantum yield (in CCCCCC): 0.27
- photoluminescence quantum yield (in CCCCOCCCC): 0.25
- photoluminescence quantum yield (in CCN(CC)CC): 0.27
- photoluminescence quantum yield (in CCOC(C)=O): 0.3
- photoluminescence quantum yield (in CCOCC): 0.37
- photoluminescence quantum yield (in CN(C)C=O): 0.32
- photoluminescence quantum yield (in Cc1ccccc1): 0.36
- photoluminescence quantum yield (in ClCCl): 0.3

Structure (SMILES): Cc1cc(-c2nc(-c3ccccc3)nc(-c3ccccc3)n2)ccc1-n1c2ccccc2c2cc3c(cc21)C1c2ccccc2C3c2ccccc21
- photoluminescence quantum yield (in Cc1ccccc1): 0.6
- photoluminescence quantum yield [2]: 0.32

Structure (SMILES): C[Si]1(C)O[Si](C)(C)c2cc3nc4ccccc4c(-c4ccccc4)c3cc2[Si](C)(C)O1
- photoluminescence quantum yield (in ClCCl): 0.42

Structure (SMILES): CCC1=C(C)C2=C(C)c3cc(I)cn3[B-](F)(F)[N+]2=C1C
- photoluminescence quantum yield (in C1CCCCC1): 0.13
- photoluminescence quantum yield (in CC(C)=O): 0.087
- photoluminescence quantum yield (in CCO): 0.095
- photoluminescence quantum yield (in CCOC(C)=O): 0.097
- photoluminescence quantum yield (in CO): 0.086
- photoluminescence quantum yield (in OCC(F)(F)F): 0.075

Structure (SMILES): CC1(C)c2ccccc2N(c2ccc(-c3nnc(-c4ccc(N5c6ccccc6C(C)(C)c6ccccc65)cc4)o3)cc2)c2ccccc21
- photoluminescence quantum yield [2]: 0.62

Structure (SMILES): Brc1cnc(-c2ccncc2)s1
- photoluminescence quantum yield (in CO): 0.02

Structure (SMILES): CCC1=C(C)C2=C(c3cc(C4=C5C(C)=C(CC)C(C)=[N+]5[B-](F)(F)n5c(C)c(CC)c(C)c54)cc(C4=C5C(C)=C(CC)C(C)=[N+]5[B-](F)(F)n5c(C)c(CC)c(C)c54)c3)c3c(C)c(CC)c(C)n3[B-](F)(F)[N+]2=C1C
- photoluminescence quantum yield (in C1CCOC1): 0.91
- photoluminescence quantum yield (in CC#N): 0.62
- photoluminescence quantum yield (in CN(C)C=O): 0.73
- photoluminescence quantum yield (in Cc1ccccc1): 0.95
- photoluminescence quantum yield (in ClC(Cl)Cl): 0.88

Structure (SMILES): Cc1cc(C)c(-c2nnc(-c3ccc(-n4c5ccccc5c5ccccc54)c(C)c3)o2)c(C)c1
- photoluminescence quantum yield (in Cc1ccccc1): 0.44

Structure (SMILES): CC1=[N+]2C(=c3c4c5ccccc5cc5cccc(c6cc(C)n(c36)[B-]2(F)F)c54)C=C1
- photoluminescence quantum yield (in C1CCOC1): 0.48
- photoluminescence quantum yield (in CCCCCC): 0.48
- photoluminescence quantum yield (in CO): 0.1
- photoluminescence quantum yield (in CS(C)=O): 0.03
- photoluminescence quantum yield (in ClC(Cl)Cl): 0.4
- photoluminescence quantum yield (in ClCCl): 0.45

Structure (SMILES): CCCCOC(=O)c1cc(Cl)c2c3c(Cl)cc4c5c(cc(Cl)c(c6c(Cl)cc(C(=O)OCCCC)c1c26)c53)C(=O)N(c1c(C(C)C)cccc1C(C)C)C4=O
- photoluminescence quantum yield (in Cc1ccccc1): 0.89

Structure (SMILES): CCCC1=Cc2nc1ccc1[nH]c(cc1CCC)c1nc(ccc3[nH]c2cc3CCC)C(CCC)=C1
- photoluminescence quantum yield (in Cc1ccccc1): 0.38

Structure (SMILES): O=c1oc2ccc3ccccc3c2nc1-c1ccccc1
- photoluminescence quantum yield (in CC#N): 0.56
- photoluminescence quantum yield (in CCCCCC): 0.12
- photoluminescence quantum yield (in CO): 0.5
- photoluminescence quantum yield (in c1ccccc1): 0.46

Structure (SMILES): c1ccc(-c2nc(-c3ccccc3)nc(-c3cc(-n4c5ccccc5c5ccccc54)cc(-n4c5ccccc5c5ccccc54)c3)n2)cc1
- photoluminescence quantum yield [3]: 0.58

Structure (SMILES): [C-]#[N+]c1ccc(-c2ccc(N)cc2)cc1
- photoluminescence quantum yield (in C1CCCCC1): 0.66
- photoluminescence quantum yield (in C1CCOC1): 0.78
- photoluminescence quantum yield (in C1COCCO1): 0.79
- photoluminescence quantum yield (in CC#N): 0.65
- photoluminescence quantum yield (in CC(C)=O): 0.52
- photoluminescence quantum yield (in CCCCCC): 0.76
- photoluminescence quantum yield (in CCOC(C)=O): 0.67
- photoluminescence quantum yield (in CN(C)C=O): 0.78
- photoluminescence quantum yield (in CO): 0.1
- photoluminescence quantum yield (in CS(C)=O): 0.77
- photoluminescence quantum yield (in Cc1ccccc1): 0.68
- photoluminescence quantum yield (in ClC(Cl)Cl): 0.2
- photoluminescence quantum yield (in ClCCl): 0.75
- photoluminescence quantum yield (in O): 0.0088
- photoluminescence quantum yield (in c1ccncc1): 0.06

Structure (SMILES): CC1(C)c2ccccc2N(c2ccc(-c3ncccn3)cc2)c2ccccc21
- photoluminescence quantum yield [3]: 0.83

Structure (SMILES): c1ccc2c(c1)Cc1ccccc1N2c1c2ccccc2c(N2c3ccccc3Cc3ccccc32)c2ccccc12
- photoluminescence quantum yield (in Cc1ccccc1): 0.06

Structure (SMILES): O=C(O)c1ccccc1-c1nc(-c2ccccc2)c2ccccn12
- photoluminescence quantum yield (in CC#N): 0.02
